Holding throughout (assay): growth of human tumour cells (NCI), 48 h
Test [1] deals with A498.
For test [2], the system named is A549.
For test [3], the system named is CAKI-1.
In test [4] the test system is CCRF-CEM.
The test system of test [5] is COLO 205.
The subject of test [6] is HL-60.
Test [7] relates to HOP-92.
Test [8] deals with HT-29.
The test system of test [9] is MCF7.
The test system of test [10] is NCI-H226.
In test [11] the test system is NCI-H460.
The test system of test [12] is OVCAR-3.
For test [13], the system named is OVCAR-4.
Test [14] concerns SK-MEL-5.
Test [15] relates to SW-620.
The subject of test [16] is U-251.
Test [17] relates to UACC-257.
The test system of test [18] is HCC 2998.
For test [19], the system named is RPMI-8226.

11 molecules from ChEMBL document CHEMBL1201862, “PubChem BioAssay data set” (2004) can be followed below.

Structures are written as SMILES. Structures can show the parent of a compound that is named as a salt.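 Assay format: 96-well plates, 48-hour exposure. Abbreviation: GI50, concentration required for 50% inhibition of growth.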 Calls of active or inactive are those of the source. No stated cut-off is given here; in the data, active = GI50 up to about 1.1 µM and inactive = higher.

Regarding `CC1(CC2=C(C(=O)NCCO[Si](C)(C)C(C)(C)C)C3(OCCO3)C2=O)OCCO1`, the GI50 was > 100 µM (inactive) in test [1]; > 100 µM (inactive) in [2]; > 100 µM (inactive) in [3]; 54.2 µM (inactive) in test [4]; > 100 µM (inactive) in test [5]; 29.1 µM (inactive) in test [6]. In addition, the GI50 is > 100 µM (inactive) in test [7]; > 100 µM (inactive) in test [8]; > 100 µM (inactive) in test [9]; 71.1 µM (inactive) in test [10]; > 100 µM (inactive) in [11]; > 100 µM (inactive) in test [12]. Besides, the GI50 in test [13], in [14], in [15], in test [16] and in test [17] was > 100 µM (inactive) each time.
Take `CC(=O)N1CC[N+](C)(CCCCN2c3ccccc3Sc3cc(N=[N+]=[N-])ccc32)CC1`: the GI50 in test [1], in test [2], in test [3], in test [4], in [5] and in test [18] was > 100 µM (inactive) in each case. Further, the GI50 in test [6] was 86.5 µM (inactive); in test [8], > 100 µM (inactive); in test [9], > 100 µM (inactive); in test [10], > 100 µM (inactive); in test [11], > 100 µM (inactive); in [12], > 100 µM (inactive). Also, the GI50 in test [13] was 18 µM (inactive); in [19] it was > 100 µM (inactive); in [14], 62.8 µM (inactive); in test [15] it was > 100 µM (inactive); in [16], > 100 µM (inactive); in test [17] it was > 100 µM (inactive).
As for `C=C(C(=O)OCC)C(=O)OCC`, the GI50 in [2], in test [3], in [4], in [5], in [18] and in test [7] was > 100 µM (inactive) each time. Also, the GI50 in test [8], in test [9], in test [10], in test [11], in test [12] and in [19] was > 100 µM (inactive) in each case. The GI50 in test [14], in test [15], in [16] and in [17] was > 100 µM (inactive) throughout.
As to `CCN(CC)c1ccc2cc(C(N)=S)c(=N)oc2c1`, the GI50 in test [2], in test [3], in test [4], in test [5], in test [18] and in [6] was > 100 µM (inactive) in each case. For the same molecule, the GI50 in test [7], in test [8], in test [9], in test [10], in [11] and in test [13] was > 100 µM (inactive) throughout. Moreover, the GI50 in test [19], in test [14], in [15], in test [16] and in test [17] was > 100 µM (inactive) in each case.
For `O=C(/C=C\Nc1ccccc1O)C(F)(F)F`, the GI50 in test [2] is > 100 µM (inactive); in test [3] it was 68.1 µM (inactive); in test [4] it was 39 µM (inactive); in test [5] it was 13.9 µM (inactive); in test [18], > 100 µM (inactive); in test [6], 16.6 µM (inactive). Moreover, the GI50 was > 100 µM (inactive) in [7]; > 100 µM (inactive) in [8]; 43.9 µM (inactive) in test [9]; > 100 µM (inactive) in test [10]; 67.5 µM (inactive) in test [11]; 19.5 µM (inactive) in [12]. Also, the GI50 was 71.9 µM (inactive) in test [13]; 15.5 µM (inactive) in [19]; 21 µM (inactive) in test [14]; > 100 µM (inactive) in test [15]; 41.6 µM (inactive) in test [16]; 26.1 µM (inactive) in test [17].
`CSc1c(C#N)c(O)nc(N)c1C(=O)Nc1ccc(C)cc1`: the GI50 in test [1] was 38.9 µM (inactive); in [2] it was > 100 µM (inactive); in test [3], 32.2 µM (inactive); in test [4], 97.5 µM (inactive); in test [5], > 100 µM (inactive); in [18] it was > 100 µM (inactive). In addition, the GI50 in test [6] is > 100 µM (inactive); in [8], > 100 µM (inactive); in test [9], > 100 µM (inactive); in [10], 34.4 µM (inactive); in test [11], > 100 µM (inactive); in test [12], > 100 µM (inactive). Also, the GI50 in [13], in test [19], in test [14], in [15], in [16] and in test [17] was > 100 µM (inactive) each time.
As for `Cc1cc(C2(c3cc(C)c(O)c(C(=O)O)c3)OS(=O)(=O)c3ccccc32)cc(C(=O)O)c1O`, the GI50 in [1], in [2], in test [3], in test [5], in test [6] and in [7] was > 100 µM (inactive) throughout. Also, the GI50 in [8], in [9], in test [10], in test [11], in test [12] and in test [13] was > 100 µM (inactive) each time. The GI50 in test [19], in test [14], in test [15], in test [16] and in test [17] was > 100 µM (inactive) each time.
`O=C1c2ccccc2-c2cc([N+](=O)[O-])c([N+](=O)[O-])cc21`: the GI50 in test [1] is 17.2 µM (inactive); in test [2], 2.43 µM (inactive); in [3], 2.47 µM (inactive); in test [4], 0.243 µM (active); in test [5], 2.11 µM (inactive); in test [6], 0.564 µM (active). Further, the GI50 in [7] was 1.72 µM (inactive); in [8], 1.91 µM (inactive); in [9], 1.38 µM (inactive); in [10] it was 4.21 µM (inactive); in [11] it was 1.51 µM (inactive); in [13] it was 1.81 µM (inactive). The GI50 was 1.04 µM (active) in test [19]; 1.87 µM (inactive) in [14]; 1.58 µM (inactive) in test [15]; 1.56 µM (inactive) in test [16]; 1.41 µM (inactive) in test [17].
Turning to `O=C(O)/C=C/C(=O)O` [FUMARIC ACID], the GI50 in test [2], in [3], in test [4], in [5], in [18] and in [6] was > 100 µM (inactive) in each case. Besides, the GI50 in test [7], in test [8], in [9], in test [10], in test [11] and in test [12] was > 100 µM (inactive) throughout. The GI50 in [13], in test [19], in test [14], in test [15], in [16] and in test [17] was > 100 µM (inactive) each time.
Take `Cn1cc(C[C@@H](N)C(=O)O)c2ccccc21` [INDOXIMOD]: the GI50 in test [1], in test [2], in test [3], in [4], in test [5] and in [18] was > 100 µM (inactive) throughout. Also, the GI50 in test [6], in test [8], in [9], in test [10], in [11] and in test [12] was > 100 µM (inactive) throughout. Further, the GI50 in [13], in test [19], in [15], in test [16] and in test [17] was > 100 µM (inactive) in each case.
For the molecule `CCN(CC)CCNc1ccc(C)c2sc3ccccc3c(=O)c12` [LUCANTHONE HYDROCHLORIDE], the GI50 in [1] was 2.23 µM (inactive); in test [2], 2.61 µM (inactive); in test [3], 2.85 µM (inactive); in test [4], 1.91 µM (inactive); in [5], 1.67 µM (inactive); in test [18], 3.64 µM (inactive). Besides, the GI50 in test [6] is 1.79 µM (inactive); in [8], 1.67 µM (inactive); in test [9], 2.39 µM (inactive); in test [10] it was 5.04 µM (inactive); in test [11], 1.97 µM (inactive); in test [12], 6.08 µM (inactive). Further, the GI50 in [13] was 4.66 µM (inactive); in [19] it was 1.9 µM (inactive); in test [14], 2.17 µM (inactive); in [15], 1.76 µM (inactive); in test [16], 2.33 µM (inactive); in [17], 1.66 µM (inactive).
